From US20250134928A1, “METHODS FOR IDENTIFYING AND USING ALLOGENEIC TUMOR INFILTRATING LYMPHOCYTES TO TREAT CANCER” (OBSIDIAN THERAPEUTICS, INC., priority 2022, published 2025)

Tested on: regulated mbIL15 TILs
Assay: ACZ dose response of IL15 expression and signaling, phospho-flow cytometry
Format: cell-based, human
Details: 18 hours, 0.1-100 μM ACZ
Description: Pre-REP TILs were prepared similarly to the methods of Example 1-3 and 9, and unengineered and mbIL15 TIL generated accordingly as described in Examples 1-3 and 9. Engagement of the IL15 signaling pathway results in phosphorylation of signal transducers downstream, including the transcription factor protein STAT5 and ribosomal protein S6. […] Next, the regulated mbIL15 TILs were regulated for 18 hours in the presence of a range of concentrations of ACZ including 0.1, 1, 2.5, 5, 10, 25, 100 μM, as well as vehicle control. The regulated mbIL15 TILs were then collected for staining and FACS analysis.
Briefly, cells were stained using antibodies for CD3, CD4, CD8, IL15 and a Live/Dead marker. Then cells were fixed in 2% formaldehyde (BD Cytofix) and permeabilized using a methanol-based buffer (BD Phospho Perm III Buffer) before staining with antibodies specific for phosphorylated STAT5 (Biolegend) and S6 (Cell Signaling Technology). Cells were acquired on the BD Symphony and analyzed using FlowJo software.

CC(=O)Nc1nnc(S(N)(=O)=O)s1 [ACZ, acetazolamide]
staining intensity of pSTAT5 and pS6: increased with higher concentrations of ACZ
ACZ concentration at which mbIL15 expression plateaus (four donors): 10 to 25 µM
